Test results from patent US20070232563A1, “Method for Enhancing Biological Activity and/or Expanding Suitable Region for Biological Activity of Living Body Contacting with Aqueous Environment” (Kabushiki Kaisha Hayashibara Seibutsu Kagaku Kenky, priority 2004, published 2007).

Assays:
[1] = system: short-necked clam (Ruditapes philippinarum); experiment: Biological activity of short-necked clam (aqueduct extension score) in aqueous mineral solutions; format: in vivo; conditions: saccharide 1 w/v %, total of 18 clams, 16 h
Procedure: Suitable region for biological activity of short-necked clam (Ruditapes philippinarum), as a fish or shellfish living in seawater, was examined by adding various saccharides to mineral aqueous solutions with various concentrations. In detail, solar salt (85% by weight of sodium chloride and 15% by weight of magnesium) as minerals was dissolved in running water kept in a container for two days to give final concentrations described in the following Table 1. Saccharide (any one of D-glucose, maltose, sucrose, maltitol, α,α-trehalose, α-maltosyl α,α-trehalose, maltotetraose and cyclic tetrasaccharide) was dissolved in the resulting salt solutions to give a final concentration of 1 w/v %, on a dry solid basis. Each of the resulting solutions was placed in a plastic bat. Eighteen pre-selected active short-necked clam in one group were placed in the bat. The bat was shaded with a black cloth and left at ambient temperature (18° C.) for 16 hours. As a control, an aqueous solar salt solution without any saccharides was prepared. Saccharides except for α-maltosyl α,α-trehalose as a saccharide derivatives thereof and cyclic tetrasaccharide were chosen from commercialized products. α-Maltosyl α,α-trehalose as saccharide derivatives of α,α-trehalose in a powder form with a purity of 98 w/w % or over was prepared by the method disclosed in Experiment 4 in Japanese Patent Kokai No. 143876/1995. Cyclic tetrasaccharide in a crystalline form with a purity of 98 w/w % or over, on a dry solid basis, was prepared by the method disclosed in Example A-7 in International Patent Publication No. WO02/10361. Influence of various saccharides was judged by observing the degree of extending aqueduct of the shellfish; 3 points: its aqueduct is well extended; 2 points: its aqueduct is slightly extended; 1 point: its aqueduct is not extended but its shells are opened; 0 point: its shells are closed. The effect on biological activity was judged by the total point of 18 shellfishes. To investigate the effective concentration range of α,α-trehalose or α-maltosyl α,α-trehalose against a mineral solution with a concentration of 1.5 w/v % or 4.5 w/v %, where α,α-trehalose or α-maltosyl α,α-trehalose was remarkably effective in Experiment 1, the following experiment using α,α-trehalose or α-maltosyl α,α-trehalose at a concentration of 0.01, 0.1, 1, 2, 3 or 4 w/v % was carried out according to the method in Experiment 1. As a control, mineral aqueous solutions with a concentration of 1.5 w/v % or 4.5 w/v % without any of the saccharides were prepared and carried out in the same manner.

[2] = system: colbicula (Corbicula leana); experiment: Biological activity of corbicula (aqueduct extension score) in aqueous mineral solutions; format: in vivo; conditions: saccharide 1 w/v %, total of 18 shellfishes, 16 h
Text: Influence of various saccharides was judged by observing the degree of extending aqueduct of the shellfish; 3 points: its aqueduct is well extended; 2 points: its aqueduct is slightly extended; 1 point: its aqueduct is not extended but its shells are opened; 0 point: its shells are closed. The effect on biological activity was judged by the total point of 18 shellfishes.
Suitable region for biological activity was examined by using colbicula (Corbicula leana) as fishes and shellfishes living in fresh water in the case of enhancing their biological activity by using aqueous mineral solutions containing various saccharides. In detail, solar salt (85% by weight of sodium chloride and 15% by weight of magnesium) as minerals was dissolved in tap water kept in a container for two days to give final concentrations described in the following Table 4. Saccharide (any one of D-glucose, maltose, sucrose, maltitol, α,α-trehalose, α-maltosyl α,α-trehalose, maltotetraose and cyclic tetrasaccharide) was dissolved in the resulting salt solutions to give a final concentration of 1 w/v %, on a dry solid basis. The resulting each solution was placed in a plastic bat. Eighteen pre-selected active shellfishes in one group were placed in the bat. The bat was shaded with a black cloth and left at ambient temperature (18° C.) for 16 hours. As a control, an aqueous solar salt solution without saccharides was prepared. Biological activity of the shellfish was judged by measuring extend their aqueducts macroscopically in the same manner as in Experiment 1.
Effective concentration range of α,α-trehalose or α-maltosyl α,α-trehalose on enhancing biological activity and/or influencing on suitable region for biological activity of colbicula (Corbicula leana) was determined according to the method of Experiment 4 by examining biological activity of the shellfish in the aqueous mineral solution with a mineral concentration of 1.5 w/v %, where α,α-trehalose or α-maltosyl α,α-trehalose was effective in Experiment 4, containing α,α-trehalose or α-maltosyl α,α-trehalose at a concentration of 0.01, 0.1, 1, 2, 3 or 4 w/v %, on a dry solid basis. As a control, a solution containing 1.5 w/v % of mineral without such saccharides was prepared and treated in the same manner.

Compound	Judgment score for biological activity ([1]; mineral 0 w/v %)	Judgment score for biological activity ([1]; mineral 0.5 w/v %)	Judgment score for biological activity ([1]; mineral 1.0 w/v %)	Judgment score for biological activity ([1]; mineral 1.5 w/v %)	Judgment score for biological activity ([1]; mineral 2.0 w/v %)	Judgment score for biological activity ([1]; mineral 2.5 w/v %)	Judgment score for biological activity ([1]; mineral 3.0 w/v %)	Judgment score for biological activity ([1]; mineral 3.5 w/v %)	Judgment score for biological activity ([1]; mineral 4.0 w/v %)	Judgment score for biological activity ([1]; mineral 4.5 w/v %)	Judgment score for biological activity ([1]; mineral 5.0 w/v %)	Judgment score for biological activity ([1]; mineral 5.5 w/v %)	Judgment score for biological activity ([1]; mineral 6.0 w/v %)	Judgment score of biological activity ([2]; mineral concentration 0)	Judgment score of biological activity ([2]; mineral concentration 0.5)	Judgment score of biological activity ([2]; mineral concentration 1.0)	Judgment score of biological activity ([2]; mineral concentration 1.5)	Judgment score of biological activity ([2]; mineral concentration 2.0)	Judgment score of biological activity ([2]; mineral concentration 2.5)	Judgment score of biological activity ([2]; mineral concentration 3.0)
OC[C@H]1O[C@@H]2OC[C@H]3O[C@H](O[C@@H]4[C@@H](O)[C@@H](OC[C@H]5O[C@H](O[C@H]([C@H]2O)[C@@H]1O)[C@H](O)[C@@H](O)[C@@H]5O)O[C@H](CO)[C@H]4O)[C@H](O)[C@@H](O)[C@@H]3O [Cyclic tetrasaccharide, cyclic tetrasaccharide]	6	10	15	16	30	43	49	41	30	17	11	0	0	51	50	29	16	13	12	1
OC[C@H]1O[C@@](CO)(O[C@H]2O[C@H](CO)[C@@H](O)[C@H](O)[C@H]2O)[C@@H](O)[C@@H]1O [Sucrose, sucrose]	7	11	14	16	31	44	48	45	30	21	9	0	0	51	46	21	11	8	7	0
OC[C@H]1O[C@H](O[C@H]2[C@H](O)[C@@H](O)C(O)O[C@@H]2CO)[C@H](O)[C@@H](O)[C@@H]1O (mixture of isomers) [Maltose, maltose]	4	12	14	15	32	44	48	42	32	25	8	3	0	51	49	18	15	14	9	0
OC[C@H]1O[C@H](O[C@H]2[C@H](O)[C@@H](O)[C@@H](O[C@H]3[C@H](O)[C@@H](O)[C@@H](O[C@H]4[C@H](O)[C@@H](O)C(O)O[C@@H]4CO)O[C@@H]3CO)O[C@@H]2CO)[C@H](O)[C@@H](O)[C@@H]1O (stereo partly drawn) [Maltotetraose, maltotetraose]	7	11	12	16	28	45	46	42	31	26	14	5	0	51	49	19	14	11	9	0
OC[C@@H](O)[C@@H](O[C@H]1O[C@H](CO)[C@@H](O)[C@H](O)[C@H]1O)[C@H](O)[C@@H](O)CO [Maltitol, maltitol]	8	11	15	20	30	41	48	47	32	16	12	5	0	50	47	25	18	13	2	0
O=C[C@H](O)[C@@H](O)[C@H](O)[C@H](O)CO [D-Glucose, D-glucose]	7	12	12	14	30	41	48	44	31	24	11	4	0	50	51	25	18	15	5	0
